Test results: patent US20060138687A1, “Method of forming particles” (Ferro Corporation, priority 2003, published 2006)

Assay: Scanning Electron Microscopy (SEM) analysis of collected particles
Type: physicochemical
Conditions: SEM micrograph; particles made by third embodiment (droplets frozen on contact with CO2/ethanol/water extracting fluid at −23° C., solid-liquid extraction)
Experimental: The collected particles were analyzed using Scanning Electron Microscopy (SEM). From FIG. 11 it is clear that the GF particles are in the form of non-agglomerated crystals, having an orthorhombic shape. The mean size of the substantially uniform particles is around 5-10 μm.
Analysis of the porous lactose particles was carried out in the same manner as described in Example 1. FIG. 12 is an SEM micrograph of the lactose particles. […] If desired, these lactose nanocrystals can be obtained simply by crumbling the large porous lactose spheres.

In the case of `COC1=CC(=O)C[C@@H](C)[C@]12Oc1c(Cl)c(OC)cc(OC)c1C2=O` [GF, Griseofulvin], the “mean size of the particles” value is reported as 5-10 μm.

In the case of `OC[C@H]1O[C@@H](O[C@H]2[C@H](O)[C@@H](O)C(O)O[C@@H]2CO)[C@H](O)[C@@H](O)[C@H]1O` (some centres unmarked) [lactose, Lactose], the “mean size of the particles” value is reported as 20-30 μm.
